Laboratory results: US20090202508A1, “NEGATIVE REGULATION OF HYPOXIA INDUCIBLE FACTOR 1 BY OS-9” (THE JOHNS HOPKINS UNIVERSITY, priority 2004, published 2009)
Peptide text beside a SMILES is read from it. * marks the point of attachment. Cbz = O=C(OCc1ccccc1)*

T1: HA-OS-9 (hemagglutinin epitope-tagged human OS-9) (human, UniProt Q13438 1-667, 35S-methionine labelled when in vitro-translated)
T1 construct: In vitro-translated in reticulocyte lysate (pull-downs) or expressed in transfected 293 cells (co-IP, lysates); also called HA-tagged OS-9; in vitro-translated OS-9
T1 sequence (looked up): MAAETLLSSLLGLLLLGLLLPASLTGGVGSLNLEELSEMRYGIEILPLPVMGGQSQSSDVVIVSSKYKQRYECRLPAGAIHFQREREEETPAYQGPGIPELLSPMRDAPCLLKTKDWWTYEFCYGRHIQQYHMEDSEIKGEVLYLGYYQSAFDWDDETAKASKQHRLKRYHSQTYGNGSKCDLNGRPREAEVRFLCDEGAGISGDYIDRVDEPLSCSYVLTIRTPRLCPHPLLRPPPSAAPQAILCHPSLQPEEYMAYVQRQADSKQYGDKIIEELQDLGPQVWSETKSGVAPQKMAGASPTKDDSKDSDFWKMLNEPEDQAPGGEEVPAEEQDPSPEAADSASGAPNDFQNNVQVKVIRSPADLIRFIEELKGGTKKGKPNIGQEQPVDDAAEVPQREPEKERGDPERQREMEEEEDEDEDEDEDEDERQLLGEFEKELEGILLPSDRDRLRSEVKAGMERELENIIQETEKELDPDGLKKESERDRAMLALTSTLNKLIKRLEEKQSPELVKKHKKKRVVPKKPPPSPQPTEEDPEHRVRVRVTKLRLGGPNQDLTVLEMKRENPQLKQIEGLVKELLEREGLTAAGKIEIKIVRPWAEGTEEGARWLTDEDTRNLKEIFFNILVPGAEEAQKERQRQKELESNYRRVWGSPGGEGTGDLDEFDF


Tests used:
PHD2 [1] = target: T2, PHD2 (Homo sapiens, UniProt Q9GZT9); test: Prolyl hydroxylation assay / in vitro VHL binding assay with GST-HIF-1α (531-826); assay type: biochemical; conditions: lysates of PHD2/OS-9 transfected 293 cells; 1 mM DMOG; FIG. 7A
T2 construct: expressed in transfected cells; host or cells: 293 cells (whole cell lysate used as the enzyme source)
Protocol: [^35S]methionine-labeled VHL protein was synthesized in vitro and GST-HIF-1α (531-826) fusion protein (GstA) was expressed in E. coli. 293 cells were transfected with empty, PHD2, or OS-9 expression vector. After 24 h, cells were washed twice with cold hypotonic extraction buffer containing 20 mM Tris (pH 7.5), 5 mM KCl, 1.5 mM MgCl2, 1 mM dithiothreitol and lysed with hypotonic extraction buffer in a Dounce homogenizer. The cell extract was centrifuged at 10,000×g for 10 min at 4° C., and the supernatant was stored in aliquots at −70° C. GstA (4 μg) was preincubated with whole cell lysate (50 μg) in a total volume of 50 μl with PBS-T at 30° C. for 10 min with or without 1 mM dimethyloxalyl glycine (DMOG). The reaction was terminated by addition of desferrioxamine to 1 mM. One aliquot (0.5 μg of GstA) was used for immunoblot assay using anti-hydroxyproline-564 HIF-1α antibody (Chan et al., 2002). The remainder ([…] of GstA) was used for in vitro VHL binding assay.
(§1) For in vitro VHL binding assay, preincubated GstA and 5 μl of [^35S]methionine-labeled VHL protein were mixed in a total volume of 300 μl of PBS-T with 1 mM desferrioxamine and incubated at 4° C. for 90 min. 20 ul of glutathione-Sepharose-4B beads (Amersham Biosciences) was added and incubated for 30 min with rotation. Beads were washed three times with PBS-T. Proteins were eluted in Laemmli sample buffer, fractionated by SDS-PAGE, and detected by autoradiography. For PHD binding assay, […] of GST-HIF-1α was preincubated with 50 μg of -whole cell lysate in a total volume of 50 μl with PBS-T at 30° C. for 10 min with or without 1 mM DMOG. The reaction was terminated by addition of desferrioxamine to 1 mM, 20 μl of glutathione-Sepharose-4B beads were added and incubated for 30 min. The beads were washed three times with PBS-T. Bound protein was eluted in Laemmli sample buffer, fractionated by SDS-PAGE, and subjected to immunoblot assay using antibodies against PHD2 (Novus Biologicals Inc.) or GST (Amersham).

PHD2 [2] = target: T2, PHD2; test: PHD binding assay (pull down of PHD2 with GST-HIF-1α (531-826)); conditions: lysates of transfected 293 cells; 1 mM DMOG; FIG. 7B
Protocol: as §1

HIF-1α = HIF-1α protein levels by immunoblot in transfected 293 cells; assay type: cell-based, human; conditions: 293 cells co-transfected with HA-OS-9 and HIF-1α; MG132 10 μM; FIG. 4A
Protocol: 293 or Hep3B cells were seeded onto 24-well plates at 8×10^4 cells per well of a 24-well plate. The following day, the cells were transfected with plasmid DNAs using Fugene-6 (Roche) for 293 and Lipofectamine Plus (Invitrogen) for Hep3B cells. After 24 h, the cells were exposed to 20% or 1% O2 for 24 h. Cells were lysed, and the luciferase activities were determined by multi-well luminescence reader (PerkinElmer), using the Dual-Luciferase Reporter Assay System (Promega). For p2.1 reporter assay, cells were co-transfected with 15 ng of control reporter pSV-Renilla, 135 ng of HIF-1 reporter p2.1, and expression vector encoding HA-OS-9, HIF-1α, or empty vector. Unless indicated otherwise, 200 ng of HIF-1α, 400 ng of HA-OS-9, 1 ng of PHD2, or 1 ng of HIF-1α triple mutant P402A/P564A/N803A (HIF-1α TM) expression vector was used for co-transfection. For pGalA reporter assays, Hep3B cells were co-transfected with 12.5 ng of pSV-Renilla, reporter 200 ng of pG5ElbLuc, 100 ng of expression vector encoding the GAL4 DNA-binding domain alone or fused to HIF-1α residues 531-826 (Jiang et al. 1997) and empty vector or vector encoding HA-OS-9. For immunoblot assays, 293 cells were seeded at 3×10^6 cells per 10-cm plate. The following day, the cells were co-transfected with expression vectors using Fugene-6. After 24 h, the cells were exposed to 20% or 1% O2 with or without MG132 (10 μM) for 8 h and lysed in 200 μl of lysis buffer containing 50 mM Tris-Cl (pH 8.0), 150 mM NaCl, 5 mM EDTA, 0.1% SDS, 1% NP-40, 0.5% sodium deoxycholate, Complete protease inhibitor cocktail (Roche), sodium orthovanadate, and sodium vanadate (Sigma).

[3] = target: T1, HA-OS-9 (hemagglutinin epitope-tagged …); test: GST pull-down of 35S-labelled in vitro-translated HA-OS-9, SDS-PAGE and autoradiography

T2 sequence (Q9GZT9 whole entry): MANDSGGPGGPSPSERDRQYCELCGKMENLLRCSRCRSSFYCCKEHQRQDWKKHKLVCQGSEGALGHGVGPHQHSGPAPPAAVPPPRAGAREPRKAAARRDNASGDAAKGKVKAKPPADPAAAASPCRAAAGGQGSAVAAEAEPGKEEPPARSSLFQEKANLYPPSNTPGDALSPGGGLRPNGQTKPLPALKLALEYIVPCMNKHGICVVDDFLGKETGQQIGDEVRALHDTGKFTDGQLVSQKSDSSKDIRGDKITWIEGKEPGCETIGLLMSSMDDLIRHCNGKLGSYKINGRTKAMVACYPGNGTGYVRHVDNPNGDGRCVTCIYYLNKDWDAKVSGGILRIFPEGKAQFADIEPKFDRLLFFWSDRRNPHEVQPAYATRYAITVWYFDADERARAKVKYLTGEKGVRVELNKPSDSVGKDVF

Molecule	binding result [3]	other results
COC(=O)CNC(=O)C(=O)OC [DMOG, dimethyloxalylglycine, reference compound]		binding of VHL to GST-HIF-1α (531-826) (PHD2 [1]): completely blocked; binding of PHD2 to GST-HIF-1α (531-826) (PHD2 [2]): further increased
CC(C)C[C@@H](C=O)NC(=O)[C@H](CC(C)C)NC(=O)[C@H](CC(C)C)NC(=O)OCc1ccccc1 [MG 132, reference compound] (Cbz-Leu-Leu-Leu-aldehyde)		reduction in HIF-1α protein levels associated with OS-9 co-expression (HIF-1α): blocked
GST-HIF-1α (429-608) (other, UniProt Q16665 429-608, looked up, Expressed in E. coli; not shown: glutathione-S-transferase (GST) from a pGEX expression vector) PLYNDVMLPSPNEKLQNINLAMSPLPTAETPKPLRSSADPALNQEVALKLEPNPESLELSFTMPQIQDQTPSPSDGSTRQSSPEPNSPSEYCFYVDSDMVNEFKLELVEKLFAEDTEAKNPFSTQDTDLDLEMLAPYIPMDDDFQLRSFDQLSPLESSSASPESASPQSTVTVFQQTQIQ	no binding	
GST-HIF-1α (531-610) (other, UniProt Q16665 531-610, looked up, Expressed in E. coli; not shown: glutathione-S-transferase (GST) from a pGEX expression vector) FKLELVEKLFAEDTEAKNPFSTQDTDLDLEMLAPYIPMDDDFQLRSFDQLSPLESSSASPESASPQSTVTVFQQTQIQEP	no binding	
SMDESGLPQLTSYDCEVNAPIQGSRNLLQGEELLRALDQVN (other, UniProt Q16665 786-826, looked up, Expressed in E. coli; not shown: glutathione-S-transferase (GST) from a pGEX expression vector) [GST-HIF-1α (786-826)]	no binding	
